Earlier results in patent publication US10092615B2, “Nutritional supplements for improving male fertility” (Fairhaven Health, LLC, priority 2016, dated 2018).

Assays:
[1] = tested on: sperm samples from 22 asthenospermic men; details: 50 μM, in vitro incubation
infertile patients = details: given for a mean 103 days
[2] = tested on: patients affected by male infertility; details: compared to placebo; for forward sperm motility (WMD): 95% CI (0.49, 23.16); for forward sperm motility (WMD) / total sperm motility (WMD): p=0.04; for total sperm motility (WMD): 95% CI (1.72, 13.14); for pregnancy rate (OR): 95% CI (2.08, 8.08), p<0.0001; for semen volume (WMD): 95% CI (−0.02, 0.58), p=0.07; for semen volume (WMD) / sperm concentration (WMD): without significant difference; for sperm concentration (WMD): 95% CI (−4.47, 15.84), p=0.27; for atypical sperm cell (WMD): 95% CI (−7.89, −3.56), p<0.00001

Row | SMILES | sperm motility [1] | standard sperm parameters (infertile patients) | fertilization rate (infertile patients; p<0.05) | forward sperm motility (WMD) [2] | total sperm motility (WMD) [2] | pregnancy rate (OR) [2] | semen volume (WMD) [2] | sperm concentration (WMD) [2] | atypical sperm cell (WMD) [2]
1 | COC1=C(OC)C(=O)C(C/C=C(\C)CC/C=C(\C)CC/C=C(\C)CC/C=C(\C)CC/C=C(\C)CC/C=C(\C)CC/C=C(\C)CC/C=C(\C)CC/C=C(\C)CCC=C(C)C)=C(C)C1=O [Coenzyme Q10] | significant increases in motility | no significant changes | significant improvement |  |  |  |  |  | 
2 | C[N+](C)(C)C[C@H](O)CC(=O)[O-] [L-carnitine] |  |  |  | 11.83 | 7.43 | 4.10 | 0.28 | 5.69 | −5.72
3 | CC(=O)O[C@H](CC(=O)[O-])C[N+](C)(C)C [acetyl-L-carnitine] |  |  |  | 11.83 | 7.43 | 4.10 | 0.28 | 5.69 | −5.72
